Patent US7989466B2, “Methods to inhibit or augment an inflammatory response” (Cambridge Enterprise Limited, priority 1999, dated 2011)
Positions of bridges follow the written chain, without caps; N, C: chain ends. Non-standard residues stand in square brackets, D forms with d. Residues, ends and D or L forms follow the SMILES beside them.

Tests used:
B cells = format: cell-based
[1] = tested on: fMLP induced THP-1 migration; assay: THP-1 chemotaxis assay, fMLP as chemoattractant; format: cell-based; details: Homo sapiens, fMLP is not a chemokine, read-out: ED50, fMLP chemotaxis assay
Method: To determine whether an agent inhibits a chemokine-induced activity, such as macrophage recruitment, varying amounts of the agent are mixed with cells in the presence of a known chemoattractant. For example, a range of known concentrations of an agent, e.g., a chemokine peptide, is incubated with a defined number (e.g., 10^4-10^6) of human THP-1 monocyte cells in individual wells of the top compartment of a trans-well plate. Chemokine (such as MCP-1, MIP1α, IL8 or SDF-1α), at a concentration known to cause significant migration of THP-1 cells in the trans-well migration assay, is placed in the lower compartment (FIG. 1). Cells are then incubated at 37° C. for a period sufficient to allow migration, e.g., 4 hours. After incubation, the cells are gently removed from the top of the filter with a pipette, 20 μl of 20 mM EDTA in simple PBS is added into each top well, and incubated for 20 minutes at 4° C. The filter is carefully flushed with media using a gentle flow, and removed. A standard curve consisting of a two-fold dilution series of THP-1 cells (in 29 μl) is prepared to accurately quantify the number of cells that have migrated. […] Absorbance of converted dye is measured at a wavelength of 595 nm using an ELISA plate reader. The number of migrated cells in each well is then determined by interpolation of the standard curve (see also Imai et al., J. Biol. Chem., 272, 15036 (1997)). […]

[2] = molecular target: T1, Recombinant human latent TGF-β1 (Homo sapiens, UniProt P01137); assay: Latent TGF-β1 activation ELISA (R2X capture); format: biochemical; parameters: key: −: A minus indicates no detectable activity in the assay; +: The number of pluses is a qualitative indicating of the activity of each peptide in each assay; ++: The number of pluses is a qualitative indicating of the activity of each peptide in each assay; +++: The number of pluses is a qualitative indicating of the activity of each peptide in each assay; ++++: The number of pluses is a qualitative indicating of the activity of each peptide in each assay; +++++: The number of pluses is a qualitative indicating of the activity of each peptide in each assay; details: test peptide at 100 nM, 37° C., 90 minutes
T1 construct: purchased R&D Systems; host or cells: CHO cells
T1 sequence (P01137 30-278 limits assumed): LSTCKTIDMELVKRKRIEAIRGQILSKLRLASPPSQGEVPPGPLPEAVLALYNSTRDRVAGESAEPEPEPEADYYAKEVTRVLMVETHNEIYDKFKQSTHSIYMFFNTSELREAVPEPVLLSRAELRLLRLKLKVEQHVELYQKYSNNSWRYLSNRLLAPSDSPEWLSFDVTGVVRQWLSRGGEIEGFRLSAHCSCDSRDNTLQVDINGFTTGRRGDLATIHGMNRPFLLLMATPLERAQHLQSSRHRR
Method: To test whether a KXK tripeptide activates TGF-beta, a direct ELISA-type assay can be used. Recombinant human latent TGF-β1 produced in CHO cells (R&D Systems) was incubated with the test activator. For example, 200 ng of latent TGF-β1 (at 20 μg/ml) was incubated with test peptide at 100 nM final concentration at 37° C. for 90 minutes. Following incubation, the TGF-β is incubated with the recombinant extracellular domain of the Type II TGF-β receptor (R2X) which binds only the active and not the latent forms of TGF-β1 (Clin. Chim. Acta, 235, 11 (1995)). For example, 1 μg of purified R2X is coated onto a Maxisorp ELISA plate well in 50 μl of 100 mM sodium carbonate for 2 hours at 4° C., and non-specific protein binding then blocked incubation with 5% sucrose 5% Tween-20 in Tris-buffered saline for 1 hour at room temperature.
The TGF-β sample is then incubated with the coated and blocked wells for 2 hours at room temperature with shaking. Wells are washed 3 times quickly with Tris-buffered saline containing 0.05% Tween-20 between each incubation. If any of the latent TGF-β1 has been activated by the incubation with test peptide, it is captured by the R2X, while remaining latent TGF-β1 is washed away. Captured active TGF-β1 is then detected by incubation with a suitable detection agent, such as a peroxidase conjugated polyclonal anti-TGF-beta antibody. For example, the wells are incubated with 200 μl of BDA19 chicken anti-TGF-β1 antibody coupled to horseradish peroxidase for 90 minutes at room temperature with shaking. Any bound peroxidase is then detected using a suitable chromogenic substrate (e.g., K-BLUE TMB substrate solution). The amount of active TGF-β generated is estimated by interpolation of a standard curve constructed using known amounts of active TGF-β1 (R&D Systems).

`CC[C@@H](C)[C@H]1NC(=O)[C@@H](CCC(N)=O)NC(=O)[C@H](N)CSSC[C@H](C(N)=O)NC(=O)[C@@H](CC(C)C)NC(=O)[C@@H](CC(=O)O)NC(=O)[C@H]2CCCN2C(=O)[C@@H](CCCCN)NC(=O)[C@@H](CCC(N)=O)NC(=O)[C@@H](CCCCN)NC(=O)[C@@H](Cc2c[nH]c3ccccc23)NC1=O` (H-[dC][dQ][dI][dW][dK][dQ][dK][dP][dD][dL][dC]-NH2; disulfide 1-11; N-terminus assumed) was tested, and the “effect on proliferation of B cells to tetanus toxoid” value (B cells) was “no effect”.

Compound `C=CCCCCCCCCC(=O)N[C@H]1CCC(=O)NC1=O` [A-I (NR58.4), [3S]-3-(undec-10-enoylamino)piperidine-2,6-dione] has an EC50 [1] of over 100 µM.

With `NCCCC[C@H](NC(=O)[C@H](CCC(N)=O)NC(=O)[C@@H](N)CCCCN)C(=O)O` [KQK] the “TGF-beta Activator” value [2] was “−”.
